“And” between values parts separate entries of the source, which are not always exact repeats. Equal values may be shown once. Read-outs that look alike come from different tables or passages of the source.
Assays:
DLD-1 [1] = test: MTT cancer cell growth inhibition by daurinol; format: cell-based; conditions: Homo sapiens, read-out: IC50 (concentration for 50% of cell growth inhibition)
Protocol: (§1) Daurinol obtained by the method of Example 2 was treated to human colon cancer cell lines HCT116 (American type of cell culture, ATCC) and DLD-1 (American type of cell culture, ATCC) to investigate the cancer cell growth inhibitory effect. The cell lines were cultured in MEM supplemented with 10% fetal bovine serum and antibiotics (penicillin and streptomycin) in a 37° C., 5% CO2 incubator. Sub-culture was performed every 2-3 days.
(§2) HCT116 and DLD-1 were inoculated in a 96-well plate at the concentration of 5×10^3 cells/well, followed by culture for 24 hours. Daurinol dissolved in DMSO (Dimethyl Sulfoxide) was treated thereto at different concentrations of 0.1-200 μg/ml for 24 and 48 hours. MTT reagent (methylthiazol-2-yl-2.5 diphenyl tetrazolium bromide) was treated thereto. 1-3 hours later, OD450 was measured to investigate cell growth.

HCT116 [2] = test: MTT cancer cell growth inhibition by daurinol; format: cell-based; conditions: Homo sapiens, HCT-116, read-out: IC50 (concentration for 50% of cell growth inhibition)
Protocol: as §1, §2

HCT116 cells [3] = test: Apoptosis by annexin V-FITC / propidium iodide co-staining, flow cytometry; format: cell-based, human; conditions: HCT116, 5 μM daurinol, 24 and 48 hours (FIGS. 7 and 8)
From the text: The induction of apoptosis by daurinol obtained by the method of Example 2 was thoroughly examined by co-staining with annexin V—FITC (fluorescein isothiocyanate) and propidium iodide.
In normal cells, phosphatidylserine, one of the cell membrane forming phospholipids, is always heading toward inside of the cell. When early apoptosis is induced, this phosphatidylserine is exposed outside of the cell. Thus, the apoptotic cells can be detected by using green fluorescence labeled annexin V that is selectively bound to phosphatidylserine.
HCT116 cells were inoculated in 60×15 cm culture dishes at the concentration of 5×10^5 cells per dish, followed by culture for 24 hours. Daurinol dissolved in DMSO (Dimethyl Sulfoxide) was treated thereto at the concentrations of 5 μM for 24 and 48 hours. The cells were harvested and washed with DPBS (Dulbecco's Phosphate Buffered Saline). 1×10^6 cells were stained with annexin V-FITC (fluorescein isothiocyanate) and propidium iodide for 15 minutes, and then were analyzed by flow cytometry.

HCT116 cells [4] = test: Morphological changes under DIC light microscope; format: cell-based, human; conditions: HCT116, 5 μM daurinol
Protocol: Daurinol obtained by the method of Example 2 was treated to cancer cells and then morphological changes of the cancer cells were observed under DIC (differential interference contrast) light microscope.
HCT116 cells were inoculated in 60×15 cm culture dishes at the concentration of 5×10^5 cells per dish, followed by culture for 24 hours. 5 μM of daurinol dissolved in DMSO (Dimethyl Sulfoxide) was treated thereto, followed by culture for 12, 24, 48, 72 and 96 hours respectively. Morphological changes of the cells were observed under DIC light microscope.

DLD-1 [5] = test: Cell cycle analysis, propidium iodide staining, flow cytometry; format: cell-based, human; conditions: for Cell cycle ratio, sub G0/G1 ratio (index for apoptosis): 48 hours (control 0); for Cell cycle ratio, S phase ratio: 48 hours (control 29.6)
Protocol: (§3) Human colon cancer cell lines HCT116 and DLD-1 were inoculated in 60×15 cm culture dishes at the concentration of 5×10^5 cells per dish, followed by culture for 24 hours. Daurinol dissolved in DMSO (Dimethyl Sulfoxide) was treated thereto at the concentrations of 5-20 μM for 24, 48 and 72 hours, respectively. The cells were harvested and washed with DPBS (Dulbecco's Phosphate Buffered Saline), followed by fixation in 70% ethanol at −20° C. for more than one day. The cells were washed again with DPBS and stained with propidium iodide for 20 minutes, and then were analyzed by flow cytometry. The propidium iodide selectively stains intracellular DNA. So, the fluorescence by propidium iodide and cell numbers was used as variants to make a graph, showing the pattern of cell cycle. According to this graph, cell cycle blocking activity of daurinol and apoptosis induced by daurinol could be confirmed.

HCT116 [6] = test: as above; format: cell-based, human; conditions: for Cell cycle ratio, sub G0/G1 ratio (index for apoptosis): 48 hours (control 0.1); for Cell cycle ratio, S phase ratio: 48 hours (control 33.7)
Protocol: as §3

IC50 (DLD-1 [1]; DLD-1, 24 hours treatment): 10.5 µg/mL and 30 µM
IC50 (DLD-1 [1]; DLD-1, 48 hours treatment): 1.4 µg/mL and 4.08 µM
IC50 (HCT116 [2]; HCT116, 24 hours treatment): 4.4 µg/mL and 12.4 µM
IC50 (HCT116 [2]; HCT116, 48 hours treatment): 0.7 µg/mL and 2.07 µM
Structure (SMILES): COc1cc2c(-c3ccc4c(c3)OCO4)c3c(cc2cc1O)COC3=O [daurinol]
Apoptosis (annexin V-FITC positive cells) versus control (HCT116 cells [3]): significantly induced
Morphological changes of the cells (HCT116 cells [4]; after 24 hours (FIG. 9)): the boundary of the cells became obvious
Morphological changes of the cells (HCT116 cells [4]; after 48 hours (FIG. 9)): started to detach from the bottom of culture dish
Cell cycle ratio, sub G0/G1 ratio (index for apoptosis) (DLD-1 [5]; DLD-1, 5 μM daurinol): 0.3%
Cell cycle ratio, S phase ratio (DLD-1 [5]; DLD-1, 5 μM daurinol): 68.6%
Cell cycle ratio, sub G0/G1 ratio (index for apoptosis) (DLD-1 [5]; DLD-1, 10 μM daurinol): 0.6%
Cell cycle ratio, S phase ratio (DLD-1 [5]; DLD-1, 10 μM daurinol): 64.1%
Cell cycle ratio, sub G0/G1 ratio (index for apoptosis) (DLD-1 [5]; DLD-1, 20 μM daurinol): 1.4%
Cell cycle ratio, S phase ratio (DLD-1 [5]; DLD-1, 20 μM daurinol): 68.0%
S phase of cell cycle versus untreated control (HCT116 [6]; HCT116, 5 μM daurinol, 24, 48 and 72 hours (FIG. 5)): significantly increased
Cell cycle ratio, sub G0/G1 ratio (index for apoptosis) (HCT116 [6]; HCT116, 5 μM daurinol): 3.8%
Cell cycle ratio, S phase ratio (HCT116 [6]; HCT116, 5 μM daurinol): 52.8%
sub G0/G1 ratio, the index for apoptosis (HCT116 [6]; HCT116, 5 μM daurinol, different treatment times (FIG. 6)): significantly increased
Cell cycle ratio, sub G0/G1 ratio (index for apoptosis) (HCT116 [6]; HCT116, 10 μM daurinol): 4.6%
Cell cycle ratio, S phase ratio (HCT116 [6]; HCT116, 10 μM daurinol): 61.1%
Cell cycle ratio, sub G0/G1 ratio (index for apoptosis) (HCT116 [6]; HCT116, 20 μM daurinol): 9.4%
Cell cycle ratio, S phase ratio (HCT116 [6]; HCT116, 20 μM daurinol): 60.8%

Source: patent publication US8227512B2, “Pharmaceutical composition containing daurinol for the prevention and treatment of cancers” (Korea Institute of Science and Technology, priority 2007, dated 2012)
